# From patent US9907846B2 (priority 2013, dated 2018)
# “And” between values parts separate entries of the source, which are not always exact repeats. Identical values can stand only once.
# Columns and labels:
# [1] = test system: PC-3 prostate cancer cells; test: cells; type: cell-based, human
# Protocol: The samples were 5-fold serially diluted in 6 steps starting from the concentration of 100 μg/ml, and incubated with PC-3 prostate cancer cells for 3 days. Then the cells were stained and read by the FMCA method.
# Then the cells were stained and the cancer cell killing effect was read by the FMCA method.
# [2] = test system: U937 cells
# Protocol: The read out was the particle formulation i.e. the extraction of the membrane into the quillaja micell, the anticancer cell killing effect tested on U937 cancer cells and the stimulation of IL-8 of the same cells (see Materials and Methods).
# The Alamar Blue assay was used essentially according recommendations from the supplier (Serotec Ltd, Oxford, UK). Briefly, the cells were adjusted to 1×10^5 cells/ml in cell culture medium and 200 μl/well cells in 96-well plates (Nunc, Roskilde, Denmark). Then various QS formulations or medium alone (as control) was added in triplicates and incubated 3 days at 37° C. in humidified atmosphere containing 5% CO2. Alamar Blue was added to a final concentration of 10% to the wells after specified time points. The cell metabolic activity was subsequently measured up to 8 hrs.
# Free form of QA is used as positive control. The cell metabolism activity is analyzed by Alamar Blue at 570 and 600 nm.
# [3] = Water solubility of drugs incorporated into G3 particles; conditions: drug alone or incorporated into G3 particles
# [4] = test system: HL-60 AML cells; test: FMCA cancer cell killing on HL-60 AML cells; type: cell-based, human; conditions: 3 days, selected concentrations
# Protocol: The FMCA method is based on measurement of fluorescence generated from hydrolysis of fluorescein diacetate (FDA) to fluorescein by cells with intact plasma membranes. After above mentioned incubation for 3 days, the medium was removed by aspiration. After one wash with PBS, 100 μl/well of FDA dissolved in a physiological buffer (10 μg/ml) was added. The plates were incubated for 45 minutes and the generated fluorescence from each well was measured in a 96-well scanning fluorometer. The fluorescence is proportional to the number of intact cells in the well. Quality criteria for a successful analysis included a fluorescence signal in the control wells of more than five times of the mean blank value, a mean co-efficient of variation (CV) in the control wells of less than 30%.
# The nanoparticles G3 and G3-DT formulated as described in Ex 1 and 2 were compared with the active component QHC form for the cancer cell killing effect. The samples were 5-fold serial diluted in 6 steps starting from 100 μg/ml, and incubated for 3 days with HL-60 AML cells. Then the cells were stained and read by the FMCA method.
# HL-60 AML cells were exposed for 3 days at pre-determined concentrations of G3 and cytarabine separately and in combination of these two as shown on FIG. 7. Then the cells were stained and read for cancer cell killing effect by the FMCA method. […]
# [5] = Detection of vitamin D3 in the water phase (DiaSorin Liaison); type: physicochemical
# Protocol: Samples with cholecalciferol (vitamin D3) incorporated in G3 particles were analysed at a University Hospital Laboratory on a Liaison automatic instrument. Although the assay (DiaSorin Liaison) is designed to measure 25-HO-D3 it has about one percent cross-reactivity with non-hydroxylated vitamin D3.
# First, 50% cholesterol and 50% vitamin D3 were used to form the lipid membrane. Quil A was added into the water phase to generate the G3 particles (for details, please refer to Example 1). 100% Cholesterol and 100% Vitamin D3 in water were used as the controls. Samples with vitamin D3 incorporated in G3 particles were analysed at the Uppsala University Hospital Laboratory on a DiaSorin Liaison automatic instrument.
smiles,measurement,setting,value
"CO[C@H]1C(=O)[C@]2(C)[C@@H](OC)C[C@H]3OC[C@@]3(OC(C)=O)[C@H]2[C@H](OC(=O)c2ccccc2)[C@]2(O)C[C@H](OC(=O)[C@H](O)[C@@H](NC(=O)OC(C)(C)C)c3ccccc3)C(C)=C1C2(C)C [Cabazitaxel, cabazitaxel]",IC50,"[1]; Homo sapiens, 72 h",25.5 µM
N[C@H]1C(O)O[C@H](CO)[C@H](O)[C@@H]1O (stereo partly drawn) [Galactosamine],EC50,[2],0.367 µg/mL and 0.389 µg/mL and 0.214 µg/mL
CS(=O)(=O)OCCCCOS(C)(=O)=O [busulfan],solubility in water (visual),[3],clear solutions
Nc1ccn([C@@H]2O[C@H](CO)[C@@H](O)[C@@H]2O)c(=O)n1 [cytarabine],cells killed,[4],< 55%
CC(=O)O[C@@]12CO[C@@H]1C[C@H](O)[C@@]1(C)C(=O)[C@H](O)C3=C(C)[C@@H](OC(=O)[C@H](O)[C@@H](NC(=O)OC(C)(C)C)c4ccccc4)C[C@@](O)([C@@H](OC(=O)c4ccccc4)[C@H]21)C3(C)C [docetaxel],cells killed,"[1]; PC-3 cells, 3 days, selected concentrations, FMCA",> 2%
"C=C1CC[C@H](O)C/C1=C/C=C1\CCC[C@]2(C)[C@@H]([C@H](C)CCCC(C)C)CC[C@@H]12 [vitamin D3 control, cholecalciferol]",vitamin D3 detected in the water phase,[5],only trace amount
